Measurements: patent US12440476B2, “Agents that target telomerase reverse transcriptase (TERT) for treating cancer and sensitizing cancer cells to genotoxic therapy” (Northwestern University, priority 2022, dated 2025)

Tests used:
A549 cells = conditions: cited from earlier work
CT26 cells [1] = assay: Clonogenic survival after irradiation (radiosensitivity); type: cell-based, mouse
Procedure: (§1) To assess radiosensitivity, MCF7, Saos-2, or CT26 cells were seeded in 6-well plates at 100 cells per well in triplicate, allowed to attach overnight and treated with DMSO or TERT inhibitors at subtoxic concentrations for 1 h prior to IR. MCF7 cells were treated with 0.5 μM NU-1, 10 μM BIBR 1532, or 1 μM MST-312, Saos-2 cells with 1 μM NU-1 or 20 μM BIBR 1532 and CT26 cells with 1 μM NU-1, 20 μM BIBR 1532 or 2 μM MST-312. Doses of 0, 1, 2, 3, 4, or 5 Gy were applied using a GammaCell ^60Co γ-ray source (Nordion) at a dose rate of 7.09 cGy/sec. After that MCF7 and Saos-2 cells were cultured for 3 weeks and CT26 for 2 weeks, then fixed and stained with crystal violet. Colonies of at least 50 cells were counted. Data from three independent biological replicates were acquired. The surviving fraction (SF) was calculated using the following formula: […]

CT26 cells [2] = assay: Clonogenicity assay (inhibitor alone); type: cell-based, mouse; conditions: 1 μM NU-1, 2 μM MST, 20 μM BIBR
Procedure: MCF7, Saos-2, or CT26 cells were seeded in 6-well plates at 100 cells per well in triplicate and allowed to attach overnight. MCF7 or CT26 cells were then treated with DMSO vehicle or TERT inhibitors in final concentration of 0.25, 0.5, 0.75, 1, 2 μM for NU-1, 2.5, 5, 7.5, 10, 20 μM for BIBR 1532, or 1, 2, 3, 4, 5 μM for MST-312. Saos-2 cells were treated with DMSO vehicle or TERT inhibitors in final concentration of 0.25, 0.5, 0.75, 1, 2 μM for NU-1 or 2.5, 5, 10, 20, 40 μM for BIBR 1532. The final volume of cell culture medium was 3 mL per well. MCF7 and Saos-2 cells were continuously cultured for 3 weeks and CT26 for 2 weeks in the presence of TERT inhibitors, fixed in methanol for 5 min, then stained with 0.5% crystal violet for 10 min at room temperature. After washing with water, the plates were dried at room temperature and imaged with an iBright Imaging System (Thermo Fisher Scientific).

Saos-2 cells = assay: Clonogenic survival after irradiation (radiosensitivity); type: cell-based, human; conditions: NU-1 1 μM
Procedure: as §1

MCF7 cells = assay: as above; type: cell-based, human; conditions: NU-1 0.5 μM
Procedure: as §1

CT26 cells [3] = assay: Senescence-associated beta-galactosidase (SA-β-Gal) assay; type: cell-based, mouse; conditions: non-toxic doses, 10 Gy, 5 days
Procedure: MCF7, Saos-2, or CT26 cells were seeded at 3×10^4 per well in 6-well plates and allowed to attach to plate overnight. For TERT inhibition, MCF7 cells were treated with DMSO vehicle, NU-2 (0.5 μM), NU-1 (0.5 μM), chrolactomycin (0.5 μM), BIBR 1532 (10 μM), or MST-312 (1 μM) for 1 h prior to IR, Saos-2 cells were treated with DMSO vehicle, NU-2 (1 μM), NU-1 (1 μM), chrolactomycin (1 μM), BIBR 1532 (20 μM), or MST-312 (1 μM) for 1 h prior to IR, and CT26 cells were treated with MSO vehicle, NU-2 (1 μM), NU-1 (1 μM), chrolactomycin (1 μM), BIBR 1532 (20 μM), or MST-312 (2 μM) for 1 h prior to IR. Then MCF7 and Saos-2 cells were irradiated with 0 or 6 Gy and CT26 cells with 0 or 10 Gy. After IR, MCF7 and Saos-2 cells were continuously cultured for 7 days and CT26 for 5 days, then fixed in 2% PFA and stained with staining buffer (1 mg/ml X-Gal (Golden Bio), 40 mM citric acid/sodium phosphate, 150 mM NaCl, 2 mM MgCl2, 3.3 mM K3[Fe(CN)6], 3.3 mM K4[Fe(CN)6], pH=6) for 16 h at 37° C., then washed with warm PBS three times and imaged in PBS within a week. Images were captured on a Zeiss Axiovert 200M microscope with a 20× Plan-NeoFluar objective and Axiocam digital camera. SA-β-Gal-positive and -negative cells were counted in more than 5 fields, yielding an average percentage indicated on each SA-β-Gal image as mean±SD. Three replicates were performed.
To examine the roles for STING, CT26 cells were seeded at 2×10^4 per well in 12-well plates and allowed to attach overnight. STING inhibitor C178 (0 or 4 μM) was added, followed by the addition of DMSO vehicle, NU-1 (1 μM), MST-312 (2 μM) or chrolactomycin (1 μM) for 1 h prior to 0 or 10 Gy. CT26 cells were cultured for 5 days, surviving cells were washed twice in PBS and cultured in fresh immune cell culture medium overnight. The CT26 cells were then cocultured with BMDCs for 12-16 h at a 1:2 ratio, and BMDCs were collected and analyzed after coculturing, as described above.

C=C1C(=O)[C@](C)(C(=O)OC)[C@H](CCc2cn(Cc3ccc(F)cc3F)nn2)O[C@@H]1C [NU-1]
LD50 (A549 cells): 35 µM
Sensitization of CT26 cells to radiation (CT26 cells [1]; CT26, non-toxic doses): sensitized CT26 cells to radiation
Mean SF2 (surviving fraction at 2 Gy) (CT26 cells [1]; CT26 cells, NU-1 1 μM, BIBR 1532 20 μM, MST-312 2 μM for 1 h prior to IR, 2 Gy): 0.322
Tolerance in clonogenic assay (inhibitor alone) (CT26 cells [2]): tolerated
Radiosensitization in clonogenic survival assay (Saos-2 cells; Saos-2 (telomerase negative), BIBR 20 μM): Neither NU-1 nor BIBR displayed radiosensitization
Mean SF2 (surviving fraction at 2 Gy) (Saos-2 cells; Saos-2 cells, BIBR 1532 20 μM for 1 h prior to IR, 2 Gy): 0.583
Radiosensitization in clonogenic survival assay (MCF7 cells; MCF7, BIBR 10 μM, MST 1 μM, IR 0-5 Gy): strongest effects
Mean SF2 (surviving fraction at 2 Gy) (MCF7 cells; MCF7 cells, BIBR 1532 10 μM, MST-312 1 μM for 1 h prior to IR, 2 Gy): 0.116
Senescence induction by IR (CT26 cells [3]): enhanced senescence induction by IR
